Data published in US5426194A, “Isolation and structure of Halistatin 1” (Arizona Board of Regents, a body corporate acting on behalf …, priority 1993, dated 1995).

What was measured:
tubulin [1] = experiment: binding of radiolabeled vinblastine to tubulin
[2] = tested on: human tumor cell line panel; experiment: NCI in vitro primary screen, pattern of differential growth inhibition / mean graph comparison; assay type: cell-based; details: computerized pattern-recognition analyses
Text: Only two hundred years ago, many diseases ravaged humankind. Many of these diseases have been controlled or eradicated. In the development of the means to treat or control these diseases, work with the appropriate common experimental animals is of critical importance. With the various types of cancers, and with the HIV virus, such work is presently ongoing. The research for the treatment of various types of cancer is coordinated in the United States by the National Cancer Institute (NCI). NCI, as a government entity, has been charged with assisting all anti-cancer research. To establish whether a substance has anti-cancer activity, NCI has established a variety of protocols one of which involves testing the candidate substance against a cell line panel containing 60 human tumor cell lines. This protocol has been verified, and is generally accepted throughout the scientific community. This protocol and the established statistical means of evaluating the results obtained therefrom have been fully described in the literature See Principles & Practice of Oncology PPO Updates, Volume 3, Number 10, October 1989, by Michael R. Boyd, M.D., Ph.D. for an in depth description of the test protocol. […]

tubulin [3] = experiment: radiolabeled GTP binding to tubulin (nucleotide exchange)
[4] = tested on: L1210 murine leukemia cells; experiment: cytotoxicity in L1210 leukemia cells; assay type: cell-based
tubulin [5] = details: in words, shown previously; cited from earlier work
tubulin [6] = details: in words, shown previously; cited from earlier work; remark: listed apart in the source
[7] = tested on: L1210 murine leukemia cells; experiment: mitotic index at cytotoxic concentrations; assay type: cell-based; details: in words

| SMILES | inhibition of binding of radiolabeled vinblastine (tubulin [1]; 5 μM) | inhibition of binding of radiolabeled vinblastine (tubulin [1]; 10 μM) | correlation of mean graph profiles [2] | inhibition of radiolabeled GTP binding to tubulin (tubulin [3]; 5 μM) | inhibition of radiolabeled GTP binding to tubulin (tubulin [3]; 10 μM) | IC50 [4] | inhibition of nucleotide exchange on tubulin (tubulin [5]) | mode of inhibition of vinblastine binding to tubulin (tubulin [6]) | rise in the mitotic index [7] |
| --- | --- | --- | --- | --- | --- | --- | --- | --- | --- |
| C=C1C[C@@H]2CC[C@@]34C[C@H]5O[C@H]6[C@@H](O3)[C@H]3O[C@H](CC[C@@H]3O[C@H]6[C@H]5O4)CC(=O)O[C@@H]3[C@@H](C)[C@@H]4O[C@@H]5C[C@]6(C[C@@H]7O[C@]8(C[C@H](C)[C@@H]9O[C@H]([C@@H](O)C[C@@H](O)CO)C[C@@H]9O8)C[C@H](C)[C@@H]7O6)O[C@@H]5C[C@@H]4O[C@H]3C[C@H]3O[C@@H](CC[C@@H]1O2)C[C@@H](C)C3=C [halichondrin B] | 51% | 73% | strongly correlated with each other and also with the profiles of a general class of tubulin-interactive antimitotics | 14% | 18% | 200 pM | inhibit nucleotide exchange on tubulin | noncompetitive inhibitor of the binding of radiolabeled vinblastine to tubulin | caused a significant rise in the mitotic index |
| C=C1C[C@@H]2CC[C@@]34C[C@H]5O[C@H]6[C@@H](O3)[C@H]3O[C@H](CC[C@@H]3O[C@H]6[C@H]5O4)CC(=O)O[C@@H]3[C@@H](C)[C@@H]4O[C@@H]5C[C@]6(C[C@@H]7O[C@]8(C[C@H](C)[C@@H]9O[C@@H]%10CC(C(O)CO)O[C@@H]%10C[C@@H]9O8)C[C@H](C)[C@@H]7O6)O[C@@H]5C[C@@H]4O[C@H]3C[C@H]3O[C@@H](CC[C@@H]1O2)C[C@@H](C)C3=C (stereo partly shown) [homohalichondrin B] |  |  | strongly correlated with each other and also with the profiles of a general class of tubulin-interactive antimitotics |  |  |  |  |  |  |
